The target in test [1] is IC3Δ human alpha2A adrenergic receptor (Homo sapiens, UniProt P08913, DEL273-347).
Protocol: (§2) Yeast cells containing the wild type IC3Δ human alpha2A adrenergic receptor were assayed in liquid culture using the alpha adrenergic receptor full agonist UK14304 (RBI) and partial agonist clonidine.
Test [2] addresses wild type human alpha2A adrenergic receptor (Homo sapiens, UniProt P08913). The settings on record: yeast cells containing wild type receptor, 18 hours.
Protocol: as §2
The target in a further test is T1, DMAR-M3 MAR IC3Δ (Drosophila melanogaster, UniProt P16395, C285T/D301E/F279L/F286I/K296E/N304G/P303A/Q299T/R293K/W292Y).
T1 construct: expressed in transfected cells; host or cells: Saccharomyces cerevisiae MPY578fc, plasmid p426GPD
T1 sequence (P16395 other isoform, or with tags, fused parts or gaps F279L/C285T/F286I/W292Y/R293K/K296E/Q299T/D301E/P303A/N304G): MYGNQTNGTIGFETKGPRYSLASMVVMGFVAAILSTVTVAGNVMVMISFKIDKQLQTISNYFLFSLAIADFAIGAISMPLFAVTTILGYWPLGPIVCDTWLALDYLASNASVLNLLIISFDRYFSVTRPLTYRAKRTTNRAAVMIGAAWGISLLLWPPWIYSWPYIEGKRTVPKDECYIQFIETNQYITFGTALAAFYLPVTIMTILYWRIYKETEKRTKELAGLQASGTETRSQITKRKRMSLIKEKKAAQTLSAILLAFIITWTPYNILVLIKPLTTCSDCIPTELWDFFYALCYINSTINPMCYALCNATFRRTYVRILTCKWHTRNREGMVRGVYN
Put plainly: Liquid culture yeast growth assay, mutated DMAR containing the M3 MAR IC3Δ. It is filed as cell-based, D. melanogaster. The conditions noted are these: yeast cells containing mutated DMAR with M3 MAR IC3Δ. The protocol: (§1) In order to construct the IC3 replacement, PCR fragments encoding three domains were prepared by standard means. Fragment 1 consisted of the amino terminal coding portion of the Drosophila MAR up to an Agel site within the 5th TMD, amplified by PCR using oligonucleotides (AAA AGATCT AAA ATG […]) (SEQ ID NO: 7) and (CCA GTA GAG GAA […] AGGCCT AAGTAGAAGGCGGCCAGTGC) (SEQ ID NO: 8). The second fragment of the DMAR was composed of carboxy terminal coding sequences starting with a PmII site in the 6th TMD, amplified by PCR using oligonucleotides ([…]) (SEQ ID NO: 9) and (AAA CTCGAG […]) (SEQ ID NO: 10). The M3 MAR IC3Δ domain was amplified as an Agel-PmII fragment with coding sequence in frame with fragments 1 and 2, described in Example 1. These fragments were assembled in plasmid p426GPD to place the mutated DMAR under control of the GPD promoter. The wild type DMAR was cloned into the expression vector, pMP3, described in U.S. Pat. No. 5,691,188.

The target of test [3] is T2, wild type D. melanogaster MAR (DMAR) (Drosophila melanogaster, UniProt P16395).
T2 construct: expressed in transfected cells; host or cells: Saccharomyces cerevisiae MPY578fc, plasmid pMP3
T2 sequence (P16395 1-805): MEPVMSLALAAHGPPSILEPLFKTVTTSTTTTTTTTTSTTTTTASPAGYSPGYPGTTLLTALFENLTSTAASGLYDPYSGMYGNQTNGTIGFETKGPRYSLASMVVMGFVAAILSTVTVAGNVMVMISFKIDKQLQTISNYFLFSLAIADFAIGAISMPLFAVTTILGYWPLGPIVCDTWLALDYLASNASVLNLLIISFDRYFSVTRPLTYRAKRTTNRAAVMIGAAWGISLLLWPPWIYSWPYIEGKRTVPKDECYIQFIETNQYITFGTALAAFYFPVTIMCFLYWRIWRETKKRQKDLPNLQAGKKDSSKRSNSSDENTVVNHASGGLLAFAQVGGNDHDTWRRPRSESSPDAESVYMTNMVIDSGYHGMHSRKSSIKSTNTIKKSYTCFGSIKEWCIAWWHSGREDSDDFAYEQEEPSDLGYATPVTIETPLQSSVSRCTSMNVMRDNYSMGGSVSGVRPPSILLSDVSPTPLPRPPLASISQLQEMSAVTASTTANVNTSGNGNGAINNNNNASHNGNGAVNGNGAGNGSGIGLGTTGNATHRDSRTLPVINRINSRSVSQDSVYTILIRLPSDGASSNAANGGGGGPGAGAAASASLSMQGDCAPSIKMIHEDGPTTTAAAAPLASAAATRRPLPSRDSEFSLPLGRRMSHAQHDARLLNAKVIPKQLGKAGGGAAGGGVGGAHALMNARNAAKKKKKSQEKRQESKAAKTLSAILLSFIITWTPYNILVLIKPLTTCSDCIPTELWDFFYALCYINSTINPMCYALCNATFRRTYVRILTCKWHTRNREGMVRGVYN
The test can be described thus: Liquid culture yeast growth assay, wild type DMAR. The settings on record: yeast cells containing wild type DMAR. It is filed as cell-based. The protocol: as §1

The next test concerns Ce 5HTR-M3 MAR IC3Δ. Put plainly: Liquid culture yeast growth assay, Ce 5HTR containing the M3 MAR IC3Δ. The format is cell-based, C. elegans. The settings on record: for antagonist effect on growth inducing effect of serotonin: antagonist at 10 μM. The protocol: In order to construct the IC3 replacement, PCR fragments encoding three domains were prepared by standard means. Fragment 1 contains the amino terminal-coding portion of the Ce 5HTR to the intracellular interface of the 5th TMD, amplified by PCR using oligonucleotides ([…]) (SEQ ID NO: 27) and ([…] […] […]) (SEQ ID NO: 28). The second fragment of the Ce 5HTR contains carboxy-terminal coding sequences starting proximal to the intracellular interface of the 6th TMD, amplified by PCR using oligonucleotides ([…]) (SEQ ID NO: 29) and ([…] […] […]) (SEQ ID NO: 30). The M3 MAR IC3Δ domain was amplified by PCR as described in Example 1.
These fragments were isolated, mixed and amplified by PCR with 5′ ([…]) (SEQ ID NO: 27) and 3′ ([…]) ([…]) oligonucleotides. The resulting fragment was digested with appropriate restriction endonucleases and assembled in p426GPD to place the mutated Ce 5HTR under control of the GPD promoter.
Yeast cells containing the Ce 5HTR were assayed in liquid culture. […] In similar reactions, the serotonergic antagonists lisuride and mianserin were added to each well at 10 μM. […] Ki values were determined using the equation of Cheng and Pruesoff. (Y Cheng et al. (1973)).

Sequence of IC3Δ human alpha2A adrenergic receptor (P08913 with tags, fused parts or gaps DEL273-347 limits assumed): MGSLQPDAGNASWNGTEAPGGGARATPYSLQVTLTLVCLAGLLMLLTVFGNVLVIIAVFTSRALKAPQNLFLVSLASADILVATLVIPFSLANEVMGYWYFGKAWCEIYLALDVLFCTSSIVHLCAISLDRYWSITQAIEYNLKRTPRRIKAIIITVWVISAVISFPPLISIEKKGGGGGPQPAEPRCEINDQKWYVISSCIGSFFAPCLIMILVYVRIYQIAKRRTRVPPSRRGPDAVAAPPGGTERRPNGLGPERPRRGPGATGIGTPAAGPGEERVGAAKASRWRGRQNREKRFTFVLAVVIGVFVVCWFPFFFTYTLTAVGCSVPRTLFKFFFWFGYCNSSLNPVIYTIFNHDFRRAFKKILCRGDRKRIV
Sequence of wild type human alpha2A adrenergic receptor (P08913 whole entry): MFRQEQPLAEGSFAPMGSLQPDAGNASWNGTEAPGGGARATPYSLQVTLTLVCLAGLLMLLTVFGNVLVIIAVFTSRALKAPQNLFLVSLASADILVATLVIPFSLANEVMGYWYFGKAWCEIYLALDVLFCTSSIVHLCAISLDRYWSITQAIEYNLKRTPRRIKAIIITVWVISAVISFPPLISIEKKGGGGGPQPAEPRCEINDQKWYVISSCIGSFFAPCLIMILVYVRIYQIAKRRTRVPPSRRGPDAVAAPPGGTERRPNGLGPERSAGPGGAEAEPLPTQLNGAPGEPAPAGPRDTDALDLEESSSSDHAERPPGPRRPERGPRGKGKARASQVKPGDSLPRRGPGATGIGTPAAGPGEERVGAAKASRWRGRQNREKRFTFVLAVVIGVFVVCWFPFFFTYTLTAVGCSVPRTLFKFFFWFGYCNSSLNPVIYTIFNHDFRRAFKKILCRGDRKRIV

`Brc1c(NC2=NCCN2)ccc2nccnc12` [UK14304]: the “yeast cell growth response” value in test [1] and in test [2] was “dose-dependent growth response” throughout.
For the compound `C[N+](C)(C)CCOC(N)=O` [carbachol], the “agonist-dependent yeast cell growth” value at DMAR-M3 MAR IC3Δ was “agonist-dependent growth response”; in test [3], “lack of agonist-dependent yeast cell growth”.
With `CCN(CC)C(=O)N[C@H]1C=C2c3cccc4[nH]cc(c34)C[C@H]2N(C)C1` [lisuride], the “antagonist effect on growth inducing effect of serotonin” value with Ce 5HTR-M3 MAR IC3Δ is “blocked”.
Same read-out and setting: next, `CN1CCN2c3ccccc3Cc3ccccc3C2C1` (stereo not shown) [mianserin]: “blocked”.
On to `NCCc1c[nH]c2ccc(O)cc12` [serotonin], for which the “agonist-dependent yeast cell growth” value in the test with Ce 5HTR-M3 MAR IC3Δ (yeast cells containing Ce 5HTR-M3 MAR IC3Δ, 18 hours) is recorded as “agonist-dependent growth response”.

These data come from US7094593B1, “Method for improving the function of heterologous G protein-coupled receptors” (priority 1998, dated 2006).
